In article PMC4257678, “Influence of Sampling on the Determination of Warfarin and Warfarin Alcohols in Oral Fluid” (PLoS ONE, 2014):
Where two headings read alike, the source gives them in different places.

How the values were obtained:
[1] = PBS 25 mM pH 7 / 1-octanol, 25°C, 24 hours, n = 3
Experimental: The LogKow value at pH = 7 of both diastereoisomers of WAROHs was determined using the standardized OECD guidelines [25]. Briefly, a standard working solution of WAROHs (1000 ng/mL, C1) was prepared in triplicate in the PBS buffer (25 mM at pH = 7) and then mechanically stirred with an equal volume (4 mL) of 1-octanol at 25°C for 24 hours. The phase separation was obtained at room temperature by centrifuging at 5000 rpm for 5 min. […] The concentration in the organic phase was calculated by subtracting C2 and C3 from C1. LogKow at pH = 7 is expressed as the ratio of the compound concentration in the organic phase to that in the aqueous phase.
The value of LogKow at pH = 7 of both diastereoisomers of WAROHs was determined by the standardized shake-flask method. Octanol was added to a working solution of the WAROHs prepared in PBS at pH 7.0.

[2] = not given; remark: listed apart in the source
[3] = dissociation constant by HPLC-FLD at different mobile phase pH and methanol content; settings: for best aqueous pKa: psKa vs Rwt% extrapolated at zero organic content
Experimental: In brief, a standard working solution of WAROHs (1060 ng/mL) was prepared in a PBS buffer (25 mM at different pH value) and then analyzed in triplicate by HPLC-FLD. This approach is based on the different chromatographic behaviour of dissociated and non-dissociated forms of each compound at different pH values of the mobile phase. The pH was lowered in steps of 1 unit and ranged from 7.0 to 3.0. To reach the required pH, different aliquots of H3PO4 (85 wt% in H2O) were added to the mobile phase. The resulting pH was further checked by a pH-meter.
The capacity factor to pH variation ratio (Δk’/ΔpH) of both diastereoisomers was determined with different contents of organic modifiers (Rwt%: 40, 50 and 60) in the methanol-PBS mobile phase. The cosolvent dissociation constant (psKa) value was calculated by equation 1 [27]: [drawing 1] (1) where k’ HA and k’ A are the capacity factors of non-dissociate and dissociate forms, respectively. The pH and k’ values were defined as the corresponding point with a […] slope in the Δk’/ΔpH plot.
The dissociation constant (pKa) of both diastereoisomers of WAROHs was determined at different pH values of the mobile phase by the HPLC-FLD method by varying the organic solvent/water ratio.

[4] = set-up: method as in PMID 16867718; settings: at 25°C; cited from earlier work
[5] = set-up: method as in PMID 16867718; settings: T = 25°C; cited from earlier work
[6] = 14 patients undergoing WAR therapy

Compound: CC(O)CC(c1ccccc1)c1c(O)c2ccccc2oc1=O (centres unmarked) [RR/SS-warfarin alcohols]
- LogKow at pH = 7 [1]: 0.83 ± 0.01
- total plasma concentration (mean ± s.d.) [6]: 30 ± 20 ng/mL
- total plasma concentration (range) [6]: 13 to 82 ng/mL
- concentration in pooled patients oral fluid sample ([2]; Figure 2E, extracted PPOFS): 0.6 ng/mL
- best aqueous pKa [3]: 6.55 ± 0.04

Compound: CC(O)CC(c1ccccc1)c1c(O)c2ccccc2oc1=O (centres unmarked) [RS/SR-warfarin alcohols]
- LogKow at pH = 7 [1]: 0.93 ± 0.01
- total plasma concentration (mean ± s.d.) [6]: 600 ± 300 ng/mL
- total plasma concentration (range) [6]: 100 to 1100 ng/mL
- unbound plasma concentration (mean ± s.d.) [6]: 5 ± 3 ng/mL
- unbound plasma concentration (range) [6]: 1 to 10 ng/mL
- concentration in non-stimulated OF samples (mean ± s.d.) [2, 6]: 3 ± 2 ng/mL
- concentration in non-stimulated OF samples (range) [2, 6]: 1 to 5 ng/mL
- concentration in stimulated OF samples (mean ± s.d.) [2, 6]: 3 ± 2 ng/mL
- concentration in stimulated OF samples (range) [2, 6]: 1 to 6 ng/mL
- concentration in pooled patients oral fluid sample ([2]; Figure 2E, extracted PPOFS): 10.1 ng/mL
- best aqueous pKa [3]: 5.73 ± 0.03

Compound: CC(=O)CC(c1ccccc1)c1c(O)c2ccccc2oc1=O (stereo not drawn) [WAR, 3-(α-acetonylbenzyl)-4-hydroxycoumarin, reference compound]
- LogP [4]: 2.82 ± 0.06
- pKa [5]: 5.15 ± 0.04
- LogKow at pH = 7 [1]: 0.94 ± 0.05
- total plasma concentration (mean ± s.d.) (human, in vivo): 1300 ± 500 ng/mL
- total plasma concentration (range) (human, in vivo): 400 to 2000 ng/mL
- unbound plasma concentration (mean ± s.d.) (human, in vivo): 9 ± 4 ng/mL
- unbound plasma concentration (range) (human, in vivo): 3 to 17 ng/mL
- concentration in non-stimulated OF samples (mean ± s.d.) ([2]; human, in vivo): 3 ± 2 ng/mL
- concentration in non-stimulated OF samples (range) ([2]; human, in vivo): 1 to 5 ng/mL
- concentration in stimulated OF samples (mean ± s.d.) ([2]; human, in vivo): 6 ± 3 ng/mL
- concentration in stimulated OF samples (range) ([2]; human, in vivo): 1 to 14 ng/mL
- concentration in pooled patients oral fluid sample ([2]; human, in vivo, po): 9.8 ng/mL
- pKa [3]: 5.42 ± 0.03
